“Also recorded” adds a separate entry of the source.
Key:
[1] = test system: α toxin-skinned basilar arteries; test: Contractile responses of α toxin-skinned basilar arteries to thrombin and PAR1-AP; design: species or system rabbit
Experimental: Alpha toxin is a substance that confers permeability to cell membrane. In a rabbit basilar artery that is treated with α toxin for permeabilization (hereinafter, also referred to as an “a toxin-skinned basilar artery”), contractile response associated with increase in calcium ion concentration and contractile response to GTPγS that activates G protein were measured.
Next, contractile responses of a toxin-skinned basilar arteries to thrombin and PAR1-AP were measured.

rabbit basilar arteries [2] = test: Contractile responses of endothelium-removed rabbit basilar artery ring preparations to thrombin / PAR1-AP
Experimental: (§1) First, 2.5 ml each of autologous arterial blood was injected into the cisterna magnas twice on Days 0 and 2. Hereinafter, this group is also referred to herein as the “SAH group”. Models injected with equal amounts of saline instead of autologous arterial blood constituted the control group. On Day 7, rabbits from each group were euthanized and endotheliums were removed from the dissected basilar arteries to produce ring preparations (500 μm in width) (FIG. 2). The endothelium-removed basilar artery ring preparations produced in this example were used to perform experiments on contractile response in the following examples.
(§2) Contractile responses to thrombin were determined for the rabbit basilar arteries from the control group and the SAH group. Following contractile response induced by 118 mM K+ depolarization stimulation, the basilar artery ring preparations were stimulated with thrombin. Thrombin is an endogenous ligand of PAR1.
Same experiment as Example 3 was performed using PAR1-AP (PAR1-activating peptide) instead of thrombin.

rabbit basilar arteries [3] = test: Effect of heparinized autologous blood on increased contractile response in SAH group; assay type: in vivo; settings: models injected twice with heparinized autologous blood (SAH+heparin)
Experimental: as §1
In order to find out the effect of heparin on this increase in the contractile response, an experiment was conducted according to the method of Example 1 using models that had been injected twice with heparinized autologous blood. Heparin forms a complex with anti-thrombin III and becomes an anticoagulant that inactivates blood coagulation factor.

PAR1 = biological target: T1, PAR1 (Oryctolagus cuniculus, UniProt G1TTP8); test: Effect of PAR1 antagonist on contractile response of rabbit basilar arteries to thrombin (rabbit double-hemorrhage SAH model); assay type: in vivo
T1 construct: from tissue; host or cells: rabbit basilar artery (E5555 co-injected with autologous blood into the cistern; artery rings tested ex vivo)
T1 sequence (G1TTP8 1-460): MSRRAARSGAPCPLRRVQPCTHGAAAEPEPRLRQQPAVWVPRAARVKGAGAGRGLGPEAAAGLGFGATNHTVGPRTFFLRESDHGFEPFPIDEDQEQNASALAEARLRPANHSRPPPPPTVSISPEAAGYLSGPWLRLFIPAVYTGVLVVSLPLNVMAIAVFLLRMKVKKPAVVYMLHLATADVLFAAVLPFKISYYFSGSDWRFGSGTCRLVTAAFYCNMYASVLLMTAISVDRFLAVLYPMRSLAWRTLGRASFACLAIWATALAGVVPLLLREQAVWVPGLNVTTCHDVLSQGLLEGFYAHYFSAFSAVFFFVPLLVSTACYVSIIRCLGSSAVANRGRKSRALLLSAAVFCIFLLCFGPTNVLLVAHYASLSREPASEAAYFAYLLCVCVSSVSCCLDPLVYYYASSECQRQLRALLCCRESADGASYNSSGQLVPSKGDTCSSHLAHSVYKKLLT
Experimental: as §1, §2
Contractile responses of the rabbit basilar arteries to thrombin were determined for the control group (sham surgery group), the SAH group and the SAH group coexisting with the PAR1 antagonist. Stimulation was given in the same manner as in Example 3.
In this example, the “sham surgery group (sham)” (control rabbit) refers to those obtained by injecting 3 ml saline twice into rabbit cisterns on Days 0 and 2, the “SAH group”(subarachnoid hemorrhage model) refers to those obtained by injecting 3 ml autologous blood twice into rabbit cisterns on Days 0 and 2, and the “SAH+E5555 group” (E5555-administered subarachnoid hemorrhage model) refers to those obtained by injecting 3 ml autologous blood supplemented with 600 μg E5555 twice into rabbit cisterns on Days 0 and 2.
On Day 7, the basilar arteries were removed to assess contractile responses to 118 mM K+ and 1 unit/ml thrombin.
In the same manner as Example 10, contractile responses of the rabbit basilar arteries to thrombin were determined for the control group (the sham surgery group), the SAH group and the SAH group coexisting with the PAR1 antagonist.
In this example, 3 ml each of autologous blood supplemented with 60 ng, 600 ng, 6 μg or 60 μg of E5555 was injected twice into rabbit cistern on Days 0 and 2.

thrombin = settings: administration to a subarachnoid hemorrhage animal model; cited from earlier work

thrombin
effect on contractile response induced by calcium ion ([1]; SAH group): significantly increased
effect on contractile response induced by calcium ion ([1]; control group): had no effect
concentration from which significant continuous contraction is induced (rabbit basilar arteries [2]; SAH group): ≥ 0.3 units/ml
reversibility of contractile response on washing (rabbit basilar arteries [2]; SAH group, Day 7, 1 unit/ml thrombin or 100 μM PAR1-AP): not changed by washing
contractile force (% of 118 mM K+-induced contraction) (rabbit basilar arteries [2]; SAH group, thrombin 1 unit/ml): 73.1±2.8%
contraction (rabbit basilar arteries [2]; control group, thrombin 1 unit/ml): did not induce contraction
contractile force (% of 118 mM K+-induced contraction) (rabbit basilar arteries [2]; control group, thrombin 10 units/ml, mild temporary contraction): 21.3±1.2%

heparin
increasement in the contractile response to PAR1-AP (rabbit basilar arteries [3]): decreased significantly
contractile response to thrombin (rabbit basilar arteries [3]; thrombin 1 unit/nil): 41.6±3.0%

CCOc1cc2c(c(F)c1OCC)C(=N)N(CC(=O)c1cc(N3CCOCC3)c(OC)c(C(C)(C)C)c1)C2 [Formula E5555]
contractile response of basilar arteries to 1 unit/ml thrombin (PAR1; SAH+E5555 (6 μg) group: autologous blood supplemented with 6 μg injected twice on Days 0 and 2, vs SAH group): smaller than that for the SAH group
contractile response of basilar arteries to 1 unit/ml thrombin (PAR1; SAH+E5555 (6 μg) group: autologous blood supplemented with 6 μg injected twice on Days 0 and 2, vs SAH group, listed as E5050): significantly suppressed
contractile response of basilar arteries to 1 unit/ml thrombin (PAR1; SAH+E5555 (60 μg) group: autologous blood supplemented with 60 μg injected twice on Days 0 and 2, vs SAH group): significantly suppressed
contractile response of basilar arteries to 1 unit/ml thrombin (PAR1; SAH+E5555 group: 3 ml autologous blood supplemented with 600 μg E5555 injected twice into cisterns on Days 0 and 2, arteries removed Day 7, n=3): contraction by 1 unit/ml thrombin was small; also recorded: significantly suppressed the increased reactivity to thrombin
dose of E5555 suppressing increased reactivity to thrombin caused by subarachnoid hemorrhage (dose-dependent) (PAR1; co-administration with autologous blood, 60 ng to 60 μg tested, 1 unit/ml thrombin): ≥ 60 ng

N=C(N)c1ccc2cc(OC(=O)c3ccc(N=C(N)N)cc3)ccc2c1 [FUT-175]
angiospasm (thrombin): suppress angiospasm

anti-thrombin III
angiospasm (thrombin): suppress angiospasm

From patent publication US20100063048A1, “Remedy for angiospasm accompanying subarachnoid hemorrhage containing thrombin receptor antagonist as the active ingredient” (Eisai R&D Mangement Co., Ltd., priority 2004, published 2010)
